In ChEMBL document CHEMBL4414588, “Cinerols, Nitrogenous Meroterpenoids from the Marine Sponge Dysidea cinerea” (J Nat Prod, 2019):
Active and inactive are the calls of the source. The rule behind the calls is not given here.

Assays:
[1] = target: Tyrosine-protein kinase JAK2 (Homo sapiens) (UniProt O60674); assay: Inhibition of JAK2 (unknown origin)
[2] = target: T1, Tyrosine-protein phosphatase non-receptor type 11 (Homo sapiens) (UniProt Q06124); assay: Inhibition of SHP2 (unknown origin)
T1 sequence (whole entry): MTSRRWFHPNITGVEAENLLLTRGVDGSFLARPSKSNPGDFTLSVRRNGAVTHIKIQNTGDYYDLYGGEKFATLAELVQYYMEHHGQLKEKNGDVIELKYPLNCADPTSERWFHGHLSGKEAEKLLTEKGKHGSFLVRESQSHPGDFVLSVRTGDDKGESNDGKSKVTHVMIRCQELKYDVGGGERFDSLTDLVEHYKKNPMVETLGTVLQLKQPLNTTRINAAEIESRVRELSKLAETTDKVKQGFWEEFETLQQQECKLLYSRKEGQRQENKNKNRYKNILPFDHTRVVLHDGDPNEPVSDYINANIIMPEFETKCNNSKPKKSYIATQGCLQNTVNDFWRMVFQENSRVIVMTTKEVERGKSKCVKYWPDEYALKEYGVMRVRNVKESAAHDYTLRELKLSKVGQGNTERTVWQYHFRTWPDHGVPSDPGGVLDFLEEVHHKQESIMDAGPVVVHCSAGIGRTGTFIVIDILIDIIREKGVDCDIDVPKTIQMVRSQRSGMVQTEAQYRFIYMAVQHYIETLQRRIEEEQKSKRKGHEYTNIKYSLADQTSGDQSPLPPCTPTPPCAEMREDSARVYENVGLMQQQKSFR

[3] = test system: A-375; assay: Cytotoxicity against human A375 cells assessed as reduction in cell viability at 32 uM incubated for 72 hrs by CCK8 assay; format: cell-based; details: a-375, 72 h
[4] = target: Acetyl-CoA carboxylase 1 (Homo sapiens) (UniProt Q13085); assay: Inhibition of ACC1 (unknown origin)
[5] = test system: HEK293; assay: Cytotoxicity against human HEK293 cells assessed as reduction in cell viability at 32 uM incubated for 72 hrs by CCK8 assay; format: cell-based; details: hek293, 72 h
[6] = target: Tyrosine-protein phosphatase non-receptor type 6 (Homo sapiens, UniProt P29350); assay: Inhibition of SHP1 (unknown origin)
[7] = target: T2, ATP-citrate synthase (Homo sapiens, UniProt P53396); assay: Inhibition of ACL (unknown origin)
T2 sequence (P53396 whole entry): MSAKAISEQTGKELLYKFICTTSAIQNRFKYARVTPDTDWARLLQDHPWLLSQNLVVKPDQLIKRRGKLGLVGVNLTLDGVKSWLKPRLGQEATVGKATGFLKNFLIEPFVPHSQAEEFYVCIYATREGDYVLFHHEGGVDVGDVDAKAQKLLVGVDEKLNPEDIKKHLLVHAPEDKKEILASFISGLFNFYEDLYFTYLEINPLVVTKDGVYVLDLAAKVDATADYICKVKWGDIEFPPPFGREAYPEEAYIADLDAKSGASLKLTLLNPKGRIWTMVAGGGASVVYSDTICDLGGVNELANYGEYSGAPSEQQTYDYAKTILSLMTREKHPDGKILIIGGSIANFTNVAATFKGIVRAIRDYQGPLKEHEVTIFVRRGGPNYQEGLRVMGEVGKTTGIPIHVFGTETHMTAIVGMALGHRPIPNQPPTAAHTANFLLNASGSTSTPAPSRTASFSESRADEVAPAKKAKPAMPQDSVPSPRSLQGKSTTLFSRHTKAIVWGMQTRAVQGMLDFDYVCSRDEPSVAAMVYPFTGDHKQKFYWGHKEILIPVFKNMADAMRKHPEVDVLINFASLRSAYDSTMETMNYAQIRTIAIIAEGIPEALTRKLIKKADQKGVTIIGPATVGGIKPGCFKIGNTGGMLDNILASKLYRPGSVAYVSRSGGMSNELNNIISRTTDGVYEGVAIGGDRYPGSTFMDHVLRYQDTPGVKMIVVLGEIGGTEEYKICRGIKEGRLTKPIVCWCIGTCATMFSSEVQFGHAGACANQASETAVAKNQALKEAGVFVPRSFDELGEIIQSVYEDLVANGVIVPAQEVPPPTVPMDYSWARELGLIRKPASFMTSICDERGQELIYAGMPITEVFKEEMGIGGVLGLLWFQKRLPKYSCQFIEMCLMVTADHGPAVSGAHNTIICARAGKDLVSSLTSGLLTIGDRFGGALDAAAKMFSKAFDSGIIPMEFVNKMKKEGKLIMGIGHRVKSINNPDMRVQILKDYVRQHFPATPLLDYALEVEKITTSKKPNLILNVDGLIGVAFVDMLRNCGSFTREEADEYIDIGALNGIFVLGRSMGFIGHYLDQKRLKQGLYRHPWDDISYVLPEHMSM

[8] = target: T3, Tyrosine-protein phosphatase non-receptor type 1 (Homo sapiens, UniProt P18031); assay: Inhibition of PTP1B (unknown origin) using pNPP as substrate incubated for 30 mins
T3 sequence (P18031 whole entry): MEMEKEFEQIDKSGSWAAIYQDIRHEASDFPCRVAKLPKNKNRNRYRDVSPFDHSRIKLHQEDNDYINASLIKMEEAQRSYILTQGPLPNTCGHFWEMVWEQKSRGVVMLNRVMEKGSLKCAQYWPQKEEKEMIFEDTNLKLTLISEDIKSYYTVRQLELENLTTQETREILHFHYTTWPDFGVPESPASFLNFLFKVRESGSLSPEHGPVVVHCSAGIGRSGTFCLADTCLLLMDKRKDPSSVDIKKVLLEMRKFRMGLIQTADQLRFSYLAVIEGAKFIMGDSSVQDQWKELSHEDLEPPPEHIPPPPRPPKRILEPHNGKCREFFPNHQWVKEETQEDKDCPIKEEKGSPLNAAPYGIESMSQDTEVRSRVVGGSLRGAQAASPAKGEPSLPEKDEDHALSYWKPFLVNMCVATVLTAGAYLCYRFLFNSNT

Chain of Tyrosine-protein kinase JAK2 (Homo sapiens) (O60674 whole entry): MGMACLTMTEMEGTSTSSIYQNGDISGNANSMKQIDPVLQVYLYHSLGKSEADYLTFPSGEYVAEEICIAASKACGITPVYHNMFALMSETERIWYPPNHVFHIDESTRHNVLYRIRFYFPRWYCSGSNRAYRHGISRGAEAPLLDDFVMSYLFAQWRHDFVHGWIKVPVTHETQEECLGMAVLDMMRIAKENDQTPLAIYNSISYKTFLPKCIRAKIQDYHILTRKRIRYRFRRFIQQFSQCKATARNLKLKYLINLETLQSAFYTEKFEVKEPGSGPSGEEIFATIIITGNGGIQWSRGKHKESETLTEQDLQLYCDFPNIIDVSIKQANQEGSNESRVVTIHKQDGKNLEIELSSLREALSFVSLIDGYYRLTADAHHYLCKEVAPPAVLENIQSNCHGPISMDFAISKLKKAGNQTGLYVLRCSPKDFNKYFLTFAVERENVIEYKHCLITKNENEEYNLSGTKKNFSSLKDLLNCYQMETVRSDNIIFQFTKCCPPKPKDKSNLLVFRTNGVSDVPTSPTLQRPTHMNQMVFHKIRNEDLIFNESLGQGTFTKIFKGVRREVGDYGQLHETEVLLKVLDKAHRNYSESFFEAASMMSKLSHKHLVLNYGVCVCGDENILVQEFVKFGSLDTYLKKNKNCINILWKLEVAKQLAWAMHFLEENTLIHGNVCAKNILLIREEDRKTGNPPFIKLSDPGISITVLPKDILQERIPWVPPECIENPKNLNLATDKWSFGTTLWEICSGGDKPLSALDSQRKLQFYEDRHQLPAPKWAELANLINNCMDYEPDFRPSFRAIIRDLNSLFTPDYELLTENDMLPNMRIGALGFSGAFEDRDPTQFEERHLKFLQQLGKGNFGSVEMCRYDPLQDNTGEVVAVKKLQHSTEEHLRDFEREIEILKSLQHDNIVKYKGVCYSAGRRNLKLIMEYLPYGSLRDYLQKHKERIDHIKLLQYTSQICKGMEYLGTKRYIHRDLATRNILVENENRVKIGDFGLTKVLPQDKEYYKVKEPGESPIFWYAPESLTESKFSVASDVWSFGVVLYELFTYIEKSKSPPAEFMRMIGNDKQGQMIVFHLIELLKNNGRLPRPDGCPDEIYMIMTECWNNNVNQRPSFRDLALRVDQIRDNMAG
Chain of Tyrosine-protein phosphatase non-receptor type 6 (P29350 whole entry): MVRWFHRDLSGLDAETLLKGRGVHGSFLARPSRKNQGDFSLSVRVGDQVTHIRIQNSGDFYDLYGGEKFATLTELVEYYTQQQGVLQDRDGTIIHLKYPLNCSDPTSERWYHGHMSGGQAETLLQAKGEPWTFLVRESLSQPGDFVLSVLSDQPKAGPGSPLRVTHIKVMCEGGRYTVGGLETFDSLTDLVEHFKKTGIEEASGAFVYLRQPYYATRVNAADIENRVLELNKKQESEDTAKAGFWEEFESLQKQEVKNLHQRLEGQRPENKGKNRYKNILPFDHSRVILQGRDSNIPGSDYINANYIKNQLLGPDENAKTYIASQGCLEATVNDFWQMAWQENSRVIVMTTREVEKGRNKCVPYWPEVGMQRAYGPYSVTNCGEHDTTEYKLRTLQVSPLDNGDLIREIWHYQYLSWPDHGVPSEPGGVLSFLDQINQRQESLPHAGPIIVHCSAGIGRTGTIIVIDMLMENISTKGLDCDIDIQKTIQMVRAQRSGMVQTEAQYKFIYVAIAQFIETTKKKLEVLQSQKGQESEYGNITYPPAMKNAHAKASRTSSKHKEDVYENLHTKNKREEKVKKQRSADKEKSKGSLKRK

inhibition [1]	inhibition [2]	inhibition [4]	IC50 [6] [µM]	IC50 [7] [µM]	IC50 [8] [µM]	SMILES	Activity [3]	Activity [5]
inactive	inactive	inactive				CC1=CCC[C@H]2[C@](C)(Cc3cc(-n4cccc4C=O)ccc3O)[C@@H](C)CC[C@]12C	Non-Toxic	Non-Toxic
inactive	inactive	inactive	2.8 to 27	2.8 to 27	2.8 to 27	CC1=CCC[C@H]2[C@](C)(Cc3cc(O)cc4[nH]c(=O)oc34)[C@@H](C)CC[C@]12C	Non-Toxic	Non-Toxic
inactive	inactive	inactive				C=C1CCC[C@H]2[C@](C)(Cc3cc(O)cc4nc(C)oc34)[C@@H](C)CC[C@]12C	Non-Toxic	Non-Toxic
inactive	inactive	inactive				CC1=CCC[C@H]2[C@](C)(Cc3cc(O)cc4nc(C)oc34)[C@@H](C)CC[C@]12C	Non-Toxic	Non-Toxic

The remaining lines, values behind:

SMILES	inhibition [1]	inhibition [2]	inhibition [4]	IC50 [6] [µM]	IC50 [7] [µM]	IC50 [8] [µM]	Activity [3]	Activity [5]
CC1=CCC[C@H]2[C@](C)(Cc3cc(NC(=O)CC(C)C)ccc3O)[C@@H](C)CC[C@]12C	inactive	inactive	inactive				Non-Toxic	
CC(=O)Nc1ccc(O)c(C[C@]2(C)[C@@H](C)CC[C@]3(C)C(C)=CCC[C@@H]23)c1	inactive	inactive	inactive				Non-Toxic	Non-Toxic
CC1=CCC[C@H]2[C@](C)(Cc3cc(N4CCCC4=O)ccc3O)[C@@H](C)CC[C@]12C	inactive	inactive	inactive				Non-Toxic	Non-Toxic
CC1=CCC[C@H]2[C@](C)(Cc3cc(O)cc4ncoc34)[C@@H](C)CC[C@]12C	inactive	inactive	inactive	2.8 to 27	2.8 to 27	2.8 to 27	Non-Toxic	Non-Toxic
CC1=CCC[C@H]2[C@](C)(Cc3cc(O)cc4nc5n(c34)CCC5)[C@@H](C)CC[C@]12C	inactive	inactive	inactive	2.8 to 27	2.8 to 27	2.8 to 27	Non-Toxic	
CC1=CCC[C@H]2[C@](C)(Cc3cc(O)cc4c3oc(=O)n4C)[C@@H](C)CC[C@]12C	inactive	inactive	inactive				Non-Toxic	Non-Toxic
C=C1CCC[C@H]2[C@](C)(Cc3cc(O)cc4nc5n(c34)CCC5)[C@@H](C)CC[C@]12C	inactive	inactive	inactive	2.8 to 27	2.8 to 27	2.8 to 27	Non-Toxic	
